Data reported in ChEMBL document CHEMBL1201862, “PubChem BioAssay data set” (2004).
Active and inactive are the calls of the source. Rule as the data show it, for most assays here: actives have a measured EC50 and inactives only a lower limit.

How the values were obtained:
INS1 = assay: beta cell apoptosis inhibitors, cytokine rescue, dose response, luminescence, retest (AID 449756); assay type: functional, cell-based; settings: Rattus norvegicus;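 also: cell death triggered by IL-1 beta plus TNF-alpha plus IFN-gamma mixture; protective hits raise ATP signal compared with cytokine alone wells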
[1] = C. albicans growth with fluconazole, confirmation, fluorescence, retest (AID 2467); assay type: functional, cell-based
Exodeoxyribonuclease V = target: T1, Exodeoxyribonuclease V (Escherichia coli (strain K12), UniProt P04993+P07648+P08394); assay: E. coli RecBCD inhibitors, dose response, counter-screen for AddAB inhibitor project, absorbance, V66 E. coli, mutant T4 phage (AID 492957); assay type: functional, cell-based, Escherichia coli str. K-12 substr. MG1655
T1 sequence (P04993 whole entry): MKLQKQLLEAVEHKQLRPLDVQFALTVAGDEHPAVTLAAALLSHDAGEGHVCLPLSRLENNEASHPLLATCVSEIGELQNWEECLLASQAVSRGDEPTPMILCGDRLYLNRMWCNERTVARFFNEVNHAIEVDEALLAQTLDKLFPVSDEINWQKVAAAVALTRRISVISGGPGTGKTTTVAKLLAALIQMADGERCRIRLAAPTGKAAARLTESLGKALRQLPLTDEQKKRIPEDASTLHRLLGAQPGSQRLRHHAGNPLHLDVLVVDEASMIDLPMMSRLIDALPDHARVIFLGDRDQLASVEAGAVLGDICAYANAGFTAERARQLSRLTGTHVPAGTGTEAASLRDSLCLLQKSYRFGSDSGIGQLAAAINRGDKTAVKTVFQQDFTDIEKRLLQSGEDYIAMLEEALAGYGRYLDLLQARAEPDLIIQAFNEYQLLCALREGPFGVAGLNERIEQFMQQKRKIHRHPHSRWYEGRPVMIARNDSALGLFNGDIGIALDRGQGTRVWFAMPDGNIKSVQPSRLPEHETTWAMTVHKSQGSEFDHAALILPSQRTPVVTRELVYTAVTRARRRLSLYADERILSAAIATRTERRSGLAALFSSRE
T1 sequence (P07648 whole entry): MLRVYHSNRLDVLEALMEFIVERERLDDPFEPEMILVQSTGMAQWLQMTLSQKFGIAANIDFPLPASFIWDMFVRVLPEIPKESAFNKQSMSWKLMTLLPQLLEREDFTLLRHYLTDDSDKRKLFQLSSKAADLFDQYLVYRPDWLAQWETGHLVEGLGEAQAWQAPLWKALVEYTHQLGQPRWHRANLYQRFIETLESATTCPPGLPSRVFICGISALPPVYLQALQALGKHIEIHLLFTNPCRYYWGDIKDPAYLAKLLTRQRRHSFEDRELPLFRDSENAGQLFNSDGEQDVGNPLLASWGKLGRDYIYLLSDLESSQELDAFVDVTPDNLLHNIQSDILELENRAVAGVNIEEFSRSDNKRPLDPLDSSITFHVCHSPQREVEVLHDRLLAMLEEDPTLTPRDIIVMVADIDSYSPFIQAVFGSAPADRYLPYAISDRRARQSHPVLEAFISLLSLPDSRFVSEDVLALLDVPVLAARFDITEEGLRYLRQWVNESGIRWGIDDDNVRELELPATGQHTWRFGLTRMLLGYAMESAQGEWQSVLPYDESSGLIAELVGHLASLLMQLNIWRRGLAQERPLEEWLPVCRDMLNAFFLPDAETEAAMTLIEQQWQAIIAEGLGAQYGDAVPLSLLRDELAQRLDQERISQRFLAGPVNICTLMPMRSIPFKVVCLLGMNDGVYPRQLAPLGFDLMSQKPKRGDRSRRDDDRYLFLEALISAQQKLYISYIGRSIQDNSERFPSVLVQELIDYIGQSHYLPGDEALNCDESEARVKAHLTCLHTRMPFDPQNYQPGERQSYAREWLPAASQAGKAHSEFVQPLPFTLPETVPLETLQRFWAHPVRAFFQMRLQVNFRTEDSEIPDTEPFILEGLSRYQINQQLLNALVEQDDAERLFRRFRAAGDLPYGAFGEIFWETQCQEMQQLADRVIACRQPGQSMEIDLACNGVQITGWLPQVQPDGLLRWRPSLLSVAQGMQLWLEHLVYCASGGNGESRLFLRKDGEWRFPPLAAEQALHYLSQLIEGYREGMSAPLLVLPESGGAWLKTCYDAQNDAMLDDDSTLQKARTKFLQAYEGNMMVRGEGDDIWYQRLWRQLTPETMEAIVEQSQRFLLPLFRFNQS
T1 sequence (P08394 whole entry): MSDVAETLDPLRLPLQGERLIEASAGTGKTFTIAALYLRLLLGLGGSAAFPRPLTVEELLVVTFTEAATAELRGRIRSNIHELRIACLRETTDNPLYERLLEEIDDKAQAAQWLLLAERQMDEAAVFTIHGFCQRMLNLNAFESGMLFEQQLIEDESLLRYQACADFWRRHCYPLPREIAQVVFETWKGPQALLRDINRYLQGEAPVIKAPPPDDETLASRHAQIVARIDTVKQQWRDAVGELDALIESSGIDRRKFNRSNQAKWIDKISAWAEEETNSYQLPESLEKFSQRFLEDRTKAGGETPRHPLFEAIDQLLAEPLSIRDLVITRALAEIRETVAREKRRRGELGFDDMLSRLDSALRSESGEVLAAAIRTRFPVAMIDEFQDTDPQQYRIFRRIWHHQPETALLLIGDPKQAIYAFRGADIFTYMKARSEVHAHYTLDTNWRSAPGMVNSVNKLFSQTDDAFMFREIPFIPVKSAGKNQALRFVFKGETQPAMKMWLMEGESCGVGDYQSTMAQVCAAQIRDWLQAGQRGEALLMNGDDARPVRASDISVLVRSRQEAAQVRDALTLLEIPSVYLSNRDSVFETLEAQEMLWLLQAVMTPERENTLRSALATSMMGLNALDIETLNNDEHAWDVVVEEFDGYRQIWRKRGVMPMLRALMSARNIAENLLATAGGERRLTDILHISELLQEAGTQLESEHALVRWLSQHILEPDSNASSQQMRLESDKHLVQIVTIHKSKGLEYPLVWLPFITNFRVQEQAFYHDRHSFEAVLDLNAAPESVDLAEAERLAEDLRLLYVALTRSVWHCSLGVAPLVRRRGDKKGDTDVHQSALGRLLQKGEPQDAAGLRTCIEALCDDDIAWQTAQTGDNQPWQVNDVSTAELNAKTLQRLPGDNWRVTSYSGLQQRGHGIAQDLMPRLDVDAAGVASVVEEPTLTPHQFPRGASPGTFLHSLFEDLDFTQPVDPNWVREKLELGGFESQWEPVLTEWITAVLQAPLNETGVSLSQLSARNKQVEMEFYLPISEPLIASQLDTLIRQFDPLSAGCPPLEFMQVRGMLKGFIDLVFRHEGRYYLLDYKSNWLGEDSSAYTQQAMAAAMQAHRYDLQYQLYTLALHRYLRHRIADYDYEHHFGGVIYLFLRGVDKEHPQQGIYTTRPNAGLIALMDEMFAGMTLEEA

[2] = NIH-3T3 fibroblast cytotoxicity, dose response, cytotoxicity control, cell-based, fluorescence, Alamar Blue, secondary assay (AID 2327); assay type: functional;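 also: NIH-3T3 mouse fibroblasts cultured with fluconazole at 8 µg/mL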
cells [3] = assay type: functional, cell-based
cells [4] = assay type: functional, cell-based; remark: listed apart in the source

For `O=C(N/N=C/c1ccc(O)cc1O)c1ccc(CN2C(=O)c3cccc4cccc2c34)cc1`, the AC50 (INS1) was 0.768 µM (active), the EC50 [1] was 0.384 µM (active) and the IC50 (Exodeoxyribonuclease V) was > 119 µM (inactive). For the same molecule, the EC50 [2] was 4.96 µM (active), the EC50 (cells [3]) was > 350 µM (not active) and the EC50 (cells [4]) was 31 µM (active).
With `CCC(=O)NC(c1ccccc1OC)c1ccc2cccnc2c1O` (configuration not stated) the AC50 (INS1) was 1.17 µM (active), the EC50 [1] was 1.48 µM (active) and the IC50 (Exodeoxyribonuclease V) was > 119 µM (inactive). The EC50 [2] was 26.6 µM (inconclusive), the EC50 (cells [3]) was > 350 µM (not active) and the EC50 (cells [4]) was 7.23 µM (active).
